Source: US20240254123A1, “PYRIDOPYRIMIDINE DERIVATIVES USEFUL AS WEE1 KINASE INHIBITORS” (APREA THERAPEUTICS, INC., priority 2021, published 2024)

Target: T1, WEE1 (Homo sapiens, UniProt P30291)
T1 construct: Drug treated cells are fixed and stained with propidium iodide (PI); endogenous in cells
Experiment: Guava flow cytometry cell cycle assay (DNA content per cell, propidium iodide)
Format: cell-based
Conditions: for WEE1 Guava MEC Guava MEC: single agent, unit assumed; for WEE1 Guava MEC with 20 nM GEM: in µM (unit assumed)
Excerpt: In this example, compounds described herein were subject to an assay that detects changes the phases of the cell cycle upon drug treatment, permitting the identification of drugs that affect cell proliferation in a specific manner. For example, problematic DNA replication causes the percentage of cells in S phase to increase. Thus, quantification of cells in S phase permits identification of drugs that cause defects in DNA replication. Similarly, drugs that selectively defects in progression through G2/M can also be identified. Moreover, synergy between assayed drugs and known cell cycle regulators can be determined, as exemplified by the effect of ATR inhibition when combined with agents that slow DNA replication, which causes replication fork collapse into DSBs and complete loss of DNA synthesis. Two novel drugs can also be combined to quantify synergistic effects on specific cell cycle phases.
The assay operates by the quantification of DNA content per cell by flow cytometry. Cells are assessed for effects on cell cycle using a Guava EasyCyte™ flow cytometer (Austin, TX). Drug treated cells are fixed and stained with propidium iodide (PI) and resuspended in phosphate-buffered saline containing the PI staining buffer. During flow cytometry, PI is excited at 528 nm and is detected in a 610/20 bandpass. Readout of the […] is optical density of DNA-staining dye. The assay generates a histogram showing count of cells by amount of DNA, which is an indicator of place in the cell cycle. This rapid assay detects relative changes in the cell cycle upon drug treatment upon comparison vehicle-treated and single-agent controls for detection of combinatorial interactions. See, Table 4.

T1 sequence (P30291 whole entry): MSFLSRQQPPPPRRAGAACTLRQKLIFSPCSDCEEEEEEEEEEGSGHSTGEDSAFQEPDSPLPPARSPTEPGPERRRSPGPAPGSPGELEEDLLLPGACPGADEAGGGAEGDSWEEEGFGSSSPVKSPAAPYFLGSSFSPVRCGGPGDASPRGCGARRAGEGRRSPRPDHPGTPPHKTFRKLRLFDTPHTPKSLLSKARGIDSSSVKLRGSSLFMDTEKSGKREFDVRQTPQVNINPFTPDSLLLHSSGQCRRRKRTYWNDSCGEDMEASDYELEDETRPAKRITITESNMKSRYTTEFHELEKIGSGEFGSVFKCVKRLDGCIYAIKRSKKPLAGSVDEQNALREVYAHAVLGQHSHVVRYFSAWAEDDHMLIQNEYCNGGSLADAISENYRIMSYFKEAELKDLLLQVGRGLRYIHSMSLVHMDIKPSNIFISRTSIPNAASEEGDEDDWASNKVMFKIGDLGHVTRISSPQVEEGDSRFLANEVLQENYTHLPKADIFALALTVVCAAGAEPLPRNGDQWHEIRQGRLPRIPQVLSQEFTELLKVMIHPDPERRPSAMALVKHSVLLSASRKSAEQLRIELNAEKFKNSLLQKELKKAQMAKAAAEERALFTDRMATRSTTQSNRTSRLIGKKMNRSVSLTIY

| SMILES | WEE1 Guava MEC Guava MEC [µM] | WEE1 Guava MEC with 20 nM GEM |
| --- | --- | --- |
| Cc1cn(-c2c(Cl)cccc2Cl)c(=O)c2cnc(Nc3cnn(C4CCN(C)CC4)c3)nc12 [Compound P2, 6-(2,6-dichlorophenyl)-8-methyl-2-[[1-(1-methyl-4-piperidyl)pyrazol-4-yl]amino]pyrido[4,3-d]pyrimidin-5-one] | 5 | 1.25 |
| O=c1c2cnc(Nc3cnn(C4CCNCC4)c3)nc2c(C2CC2)cn1-c1c(Cl)cccc1Cl [Compound P3, 8-cyclopropyl-6-(2,6-dichlorophenyl)-2-[[1-(4-piperidyl)pyrazol-4-yl]amino]pyrido[4,3-d]pyrimidin-5-one] | 2.5 | 0.625 |
| CCc1cn(-c2c(Cl)cccc2Cl)c(=O)c2cnc(Nc3cnn(C4CCN(C)CC4)c3)nc12 [Compound P5, 6-(2,6-dichlorophenyl)-8-ethyl-2-((1-(1-methylpiperidin-4-yl)-1H-pyrazol-4-yl)amino)pyrido[4,3-d]pyrimidin-5(6H)-one] | > 5 | 1.25 |
| C=C(C)c1cn(-c2c(Cl)cccc2Cl)c(=O)c2cnc(Nc3cnn(C4CCNCC4)c3)nc12 [Compound P6, 6-(2,6-dichlorophenyl)-2-((1-(piperidin-4-yl)-1H-pyrazol-4-yl)amino)-8-(prop-1-en-2-yl)pyrido[4,3-d]pyrimidin-5(6H)-one] | 5 | 1.25 |
| C=C(C)c1cn(-c2c(Cl)cccc2Cl)c(=O)c2cnc(Nc3cnn(C4CCN(C)CC4)c3)nc12 [Compound P7, 6-(2,6-dichlorophenyl)-8-isopropenyl-2-[[1-(1-methyl-4-piperidyl)pyrazol-4-yl]amino]pyrido[4,3-d]pyrimidin-5-one] | 2.5 | 1.25 |
| CC(C)c1cn(-c2c(Cl)cccc2Cl)c(=O)c2cnc(Nc3cnn(C4CCNCC4)c3)nc12 [Compound P8, 6-(2,6-dichlorophenyl)-8-isopropyl-2-[[1-(4-piperidyl)pyrazol-4-yl]amino]pyrido[4,3-d]pyrimidin-5-one] | 5 | 1.25 |
| CC(C)c1cn(-c2c(Cl)cccc2Cl)c(=O)c2cnc(Nc3cnn(C4CCN(C)CC4)c3)nc12 [Compound P9, 6-(2,6-dichlorophenyl)-8-isopropyl-2-[[1-(1-methyl-4-piperidyl)pyrazol-4-yl]amino]pyrido[4,3-d]pyrimidin-5-one] | 5 | 1.25 |
| CN1CCCC(n2cc(Nc3ncc4c(=O)n(-c5c(Cl)cccc5Cl)cc(Br)c4n3)cn2)C1 (stereo not shown) [Compound P12, 8-bromo-6-(2,6-dichlorophenyl)-2-[[1-(1-methyl-3-piperidyl)pyrazol-4-yl]amino]pyrido[4,3-d]pyrimidin-5-one] | > 1.25 | 0.625 |
| O=c1c2cnc(Nc3cnn(C4CCCNC4)c3)nc2c(Br)cn1-c1c(Cl)cccc1Cl (stereo not shown) [Compound P13, 8-bromo-6-(2,6-dichlorophenyl)-2-[[1-(3-piperidyl)pyrazol-4-yl]amino]pyrido[4,3-d]pyrimidin-5-one] | 0.625 | 0.313 |
| Cc1ccc(Cl)c(-n2cc(Br)c3nc(Nc4cnn(C5CCNCC5)c4)ncc3c2=O)c1Cl [Compound P14, 8-bromo-6-(2,6-dichloro-3-methyl-phenyl)-2-[[1-(4-piperidyl)pyrazol-4-yl]amino]pyrido[4,3-d]pyrimidin-5-one] | > 5 | 1.25 |
| Cc1ccc(Cl)c(-n2cc(Br)c3nc(Nc4cnn(C5CCN(C)CC5)c4)ncc3c2=O)c1Cl [Compound P15, 8-bromo-6-(2,6-dichloro-3-methyl-phenyl)-2-[[1-(1-methyl-4-piperidyl)pyrazol-4-yl]amino]pyrido[4,3-d]pyrimidin-5-one] | 5 | 1.25 |
